Assay results: patent US6348445B1, “Biologically active peptides with reduced toxicity in animals and a method for preparing same” (priority 1992, dated 2002)
Read-outs that look alike come from different tables or passages of the source. Where a SMILES comes first, the peptide text is derived from it. [ ]: non-standard residue; d: D form. The star is where a group is joined. hArg = N=C(N)NCCCC[C@H](N)C(=O)O; Octanoyl = CCCCCCCC(=O)*

Legend:
[1] = system: A. viscosus; assay: anaerobic anti-microbial susceptibility test (MIC); format: cell-based; conditions: 24-48 hours
[2] = system: C. albicans; format: cell-based
Method in brief: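 Broth microdilution: mid-log organisms at 1-5×10^5 CFU/ml in Mueller Hinton broth exposed to 2-fold peptide series (0.25–256 μg/ml final). After 16-20 h at 37° C, MIC read as the lowest concentration leaving the well clear.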

[3] = system: P. aeruginosa strain ATCC 27853; format: cell-based
Method in brief: (§1)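 Broth microdilution per NCCLS M7-T2: final peptide levels 0.25 to 256 μg/ml (twofold steps), inoculum 1-5×10^5 CFUs/ml in full-strength Mueller Hinton broth. MIC read as lowest concentration leaving the well clear after 16-20 hours at 37° C.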

[4] = system: E. coli ATCC strain 25922; assay: Minimal Inhibitory Concentration, microtiter broth dilution; format: cell-based
Method in brief: as §1

[5] = system: S. mutans; assay: anaerobic anti-microbial susceptibility test (MIC); format: cell-based; design: unit not given here; conditions: 24-48 hours
[6] = system: P. gingivalis; conditions: anaerobic, 24-48 hours
[7] = system: S.aureus strain ATCC 25923; assay: Minimal Inhibitory Concentration, microtiter broth dilution; format: cell-based; conditions: Mueller Hinton broth, 16-20 hours at 37° C.
Source text: Table I, which follows, indicates the Minimal Inhibitory Concentration (MIC) in […] of various peptides against S.aureus strain ATCC 25923(S), P. aeruginosa strain ATCC 27853(P), E. coli ATCC strain 25922(E), and C. 4albicans (CA). […] The peptides are unsubstituted at the N-terminal; substituted with an acetyl group at the N-terminal, as indicated by Ac-; substituted with an octanoyl group at the N-terminal, as indicated by Oct-; substituted with spinogosine, as indicated by Sph-; substituted with a succinyl group, as indicated by Suc-; substituted with a hexanoyl group, as indicated by Hex-; substituted with a heptanoyl group, as indicated by Hep-; substituted with a valeryl group, as indicated by Val-; substituted with a myristryl group, as indicated by Myr-; or substituted with an ibuprofyl group, as indicated by Ibu-;
The procedure for the anti-bacterial assay is based upon the guidelines of the National Committee for Clinical Laboratory Standards, Document M7-T2, Volume 8, No. 8, 1988, which document is entirely incorporated herein by reference.
Stock solutions of peptides, with and without the appropriate substitutions, were prepared at a concentration of 512 μg/ml in sterile deionized distilled water and stored at −70° C.
The stock peptide solution was diluted in serial dilutions (1:2) down the wells of a microtiter plate so that the final concentrations of peptides in the wells were 0.25, 0.50, 1, 2, 4, 8, 16, 32, 64, 128 and 256 μg/ml. 1-5×10^5 CFUs/ml of either S. aureus ATCC 25923, E. coli ATCC 25922, P. aeruginosa ATCC 27853, or C. albicans, were added to the wells in full strength Mueller Hinton broth (BBL 11443) from a mid-log culture. The inoculum was standardized spectrophotometrically at 600 nm and was verified by colony counts. The plates were incubated for 16-20 hours at 37° C., and the minimal inhibitory concentration (MIC) for each peptide was determined. Minimal inhibitory concentration is defined as the lowest concentration of peptide which produces a clear well in the microtiter plate. The minimal inhibitory concentration of each of the peptides with and/or without the appropriate substitutions is given in Table I below.

[8] = P. aeruginosa strain ATCC 27853, Table I
[9] = E. coli ATCC strain 25922, Table I

| Structure (SMILES) | MIC A. viscos [1] | MIC S. mutans [5] | MIC P. gingivalis (strain) 9-14K-1 [6] | MIC P. gingivalis (strain) 381 [6] | MIC P. gingivalis (strain) 450 [6] | MIC P. gingivalis (strain) A7A1-28 [6] | MIC P. gingivalis (strain) FAY-19M-1 [6] | Minimal Inhibitory Concentration CA [2] | Minimal Inhibitory Concentration P ([3]; ATCC 27853) | Minimal Inhibitory Concentration E ([4]; ATCC strain 25922) | Minimal Inhibitory Concentration CA ([2]; C. albicans, Table I) | Minimal Inhibitory Concentration P [3, 8] | Minimal Inhibitory Concentration E [4, 9] | Minimal Inhibitory Concentration S [7] |
| --- | --- | --- | --- | --- | --- | --- | --- | --- | --- | --- | --- | --- | --- | --- |
| CCCCCCCC(=O)N[C@@H](CCCCNC(=N)N)C(=O)N[C@H](C(=O)N[C@@H](C)C(=O)NCC(=O)N[C@@H](CCCCNC(=N)N)C(=O)N[C@H](C(=O)N[C@@H](C)C(=O)N[C@@H](CCCCNC(=N)N)C(=O)N[C@H](C(=O)N[C@@H](C)C(=O)NCC(=O)N[C@@H](CCCCNC(=N)N)C(=O)N[C@H](C(=O)N[C@@H](C)C(=O)N[C@@H](CCCCNC(=N)N)C(=O)N[C@H](C(=O)N[C@@H](C)C(=O)NCC(=O)N[C@@H](CCCCNC(=N)N)C(=O)N[C@H](C(=O)N[C@@H](C)C(N)=O)[C@@H](C)CC)[C@@H](C)CC)[C@@H](C)CC)[C@@H](C)CC)[C@@H](C)CC)[C@@H](C)CC [Oct-(SEQ ID NO: 66)-NH2] (Octanoyl-[hArg]IAG[hArg]IA[hArg]IAG[hArg]IA[hArg]IAG[hArg]IA-NH2) | 16 μl/ml | 32 | 2 μl/ml | 4 μl/ml | 2 μl/ml | 8 μl/ml | 2 μl/ml | 256 µg/mL | 16 µg/mL | 8 µg/mL |  |  |  |  |
| CCCCCCCC(=O)N[C@@H](CCCCN)C(=O)N[C@@H](CCCCN)C(=O)N[C@@H](CC(C)C)C(=O)N[C@@H](C)C(=O)N[C@@H](CCCCN)C(=O)N[C@@H](CC(C)C)C(=O)N[C@@H](C)C(=O)N[C@@H](CCCCN)C(=O)N[C@@H](CCCCN)C(=O)N[C@@H](CC(C)C)C(=O)N[C@@H](C)C(N)=O [Oct-(SEQ ID NO: 123)-NH2] (Octanoyl-KKLAKLAKKLA-NH2) |  |  |  |  |  |  |  |  |  |  | 32 µg/mL | 16 µg/mL | 32 µg/mL | 32 µg/mL |
| CCCCCCCC(=O)N[C@@H](CCCCN)C(=O)N[C@@H](CC(C)C)C(=O)N[C@@H](C)C(=O)N[C@@H](CCCCN)C(=O)N[C@@H](CC(C)C)C(=O)N[C@@H](C)C(=O)N[C@@H](CCCCN)C(=O)N[C@@H](CCCCN)C(=O)N[C@@H](CC(C)C)C(=O)N[C@@H](C)C(N)=O [Oct-(SEQ ID NO: 124)-NH2] (Octanoyl-KLAKLAKKLA-NH2) |  |  |  |  |  |  |  |  |  |  | 128 µg/mL | 64 µg/mL | 256 µg/mL | 128 µg/mL |

Now from value to compound, other results behind:

| MIC A. viscos [1] | MIC S. mutans [5] | MIC P. gingivalis (strain) 9-14K-1 [6] | MIC P. gingivalis (strain) 381 [6] | MIC P. gingivalis (strain) 450 [6] | MIC P. gingivalis (strain) A7A1-28 [6] | MIC P. gingivalis (strain) FAY-19M-1 [6] | Structure (SMILES) | Minimal Inhibitory Concentration CA [2] | Minimal Inhibitory Concentration P ([3]; ATCC 27853) | Minimal Inhibitory Concentration E ([4]; ATCC strain 25922) | Minimal Inhibitory Concentration CA ([2]; C. albicans, Table I) | Minimal Inhibitory Concentration P [3, 8] | Minimal Inhibitory Concentration E [4, 9] | Minimal Inhibitory Concentration S [7] |
| --- | --- | --- | --- | --- | --- | --- | --- | --- | --- | --- | --- | --- | --- | --- |
| 8 μl/ml | 8 | 2 μl/ml | 16 μl/ml | 4 μl/ml | 4 μl/ml | 8 μl/ml | CC[C@H](C)[C@H](NC(=O)[C@H](CCCCNC(=N)N)NC(=O)CNC(=O)[C@H](C)NC(=O)[C@@H](NC(=O)[C@H](CCCCNC(=N)N)NC(=O)[C@H](C)NC(=O)[C@@H](NC(=O)[C@H](CCCCNC(=N)N)NC(=O)CNC(=O)[C@H](C)NC(=O)[C@@H](NC(=O)[C@H](CCCCNC(=N)N)NC(=O)[C@H](C)NC(=O)[C@@H](NC(=O)[C@H](CCCCNC(=N)N)NC(=O)CNC(=O)[C@H](C)NC(=O)[C@@H](NC(=O)[C@@H](N)CCCCNC(=N)N)[C@@H](C)CC)[C@@H](C)CC)[C@@H](C)CC)[C@@H](C)CC)[C@@H](C)CC)C(=O)N[C@@H](C)C(N)=O [(SEQ ID NO: 66)-NH2, (Har Ile Ala Gly Har Ile Ala)3] (H-[hArg]IAG[hArg]IA[hArg]IAG[hArg]IA[hArg]IAG[hArg]IA-NH2) | 64 µg/mL | 32 µg/mL | 32 µg/mL |  |  |  |  |
| 32 μl/ml | 16 | 2 μl/ml | 2 μl/ml | 1 μl/ml | 1 μl/ml | 2 μl/ml | CCCCCCCC(=O)N[C@@H](CCCCN)C(=O)N[C@H](C(=O)N[C@@H](C)C(=O)NCC(=O)N[C@@H](CCCCN)C(=O)N[C@H](C(=O)N[C@@H](C)C(=O)N[C@@H](CCCCN)C(=O)N[C@H](C(=O)N[C@@H](C)C(=O)NCC(=O)N[C@@H](CCCCN)C(=O)N[C@H](C(=O)N[C@@H](C)C(=O)N[C@@H](CCCCN)C(=O)N[C@H](C(=O)N[C@@H](C)C(=O)NCC(=O)N[C@@H](CCCCN)C(=O)N[C@H](C(=O)N[C@@H](C)C(=O)O)[C@@H](C)CC)[C@@H](C)CC)[C@@H](C)CC)[C@@H](C)CC)[C@@H](C)CC)[C@@H](C)CC [Oct-(SEQ ID NO: 27)-OH] (Octanoyl-KIAGKIAKIAGKIAKIAGKIA-OH) | 32 µg/mL | 8 µg/mL | 4 µg/mL |  |  |  |  |
